Like-named read-outs stand apart in the source and are kept apart here.
Legend:
[1] = system: breast cancer MDA-MB-231 cells; test: Soft agar colony formation assay, MDA-MB-231 cells; format: cell-based, human; settings: for decrease of number of colonies of MDA-MB-231: 1 µM, 14 days; for decrease of number of colonies of MDA-MB-231 / colony growth of MDA-MB-231 cells (in words): soft agar; for colony growth of MDA-MB-231 cells (in words): concentrations of 0.5 µM and 1 µM; for colony formation of MDA-MB-231 cells (in words): nontoxic concentration of 0.5 µM
Description: (§1) Compounds 1–6 were dissolved in sterile DMSO to prepare stock concentrations of 20 mM. Cells were treated with serially diluted compounds 1–6 (culture medium used as diluent) to give the intended final concentrations. The vehicle control is the cells treated with equivalent volume of DMSO (less than 0.5%) for all presented experiments.
(§2) Human cancer cells (2.4 × 10^4/mL) were seeded into 6-well plate and treated with compounds 1–6 (0.1, 0.5, and 1 µM) or cisplatin (3 µM) in 1 mL of 0.3% BME agar containing 10% FBS, 2 mM L-glutamine, and 25 µg/mL gentamicin. The cultures were maintained in a 37 °C, 5% CO2 incubator for 14 days, and the cell colonies were scored using a Motic microscope AE 20 (XiangAn, Xiamen, China) and ImageJ software bundled with 64-bit Java 1.8.0_112 (NIH, Bethesda, MD, USA).
(§3) Figure 3 Effect of compounds 1–6 on colony formation of human colorectal carcinoma HT-29, melanoma RPMI-7951, and breast cancer MDA-MB-231 cell lines. HT-29, RPMI-7951, and MDA-MB-231 cells (2.4 × 10^4 /mL) treated with/without investigated 1–6 (0.1, 0.5, and 1 µM) and subjected into a soft agar. The culture was maintained at 37 °C in a 5% CO2 atmosphere for 2 weeks. The colonies were counted under a microscope with the aid of the ImageJ software program (n = 6 for control and each compound, n—quantity of photos). The asterisks (* p < 0.05, ** p < 0.01, *** p < 0.001) indicate a significant decrease in colony formation in cells treated with compounds compared with the nontreated cells (control).

[2] = system: HT-29, RPMI-7951, and MDA-MB-231 cells; test: Soft agar colony formation assay, statements on all types of cancer cells; format: cell-based, human; settings: nontoxic concentrations
Description: as §1, §2
as §3, with “The asterisks (* p < 0.05, ** p < 0.01, *** p < 0.001) indicate a significant decrease in colony formation in cells treated with compounds compared with the nontreated cells (control).” left out

[3] = system: HEK 293, HT-29, RPMI-7951, and MDA-MB-231 cells; test: MTS cell viability assay, statements on all tested cell lines; format: cell-based, human; settings: individual compounds, 24 h, concentrations range up to 40 µM
Description: Cells (1.0 × 10^4) were seeded in 96-well plates (Jet Biofil, Guangzhou, China) and cultured in 200 µL of complete culture medium for 24 h at 37 °C in 5% CO2 incubator. […] Cells were also treated by cisplatin (positive control) at 1, 5, 10, 50, 100 µM for 24 and 48 h. Subsequently, the cells were incubated with 15 µL MTS reagent for 3 h, and the absorbance of each well was measured at 490/630 nm using Power Wave XS microplate reader (BioTek, Wynusky, VT, USA).

melanoma RPMI-7951 cells [4] = test: MTS cell viability assay, RPMI-7951 cells; format: cell-based, human
Description: (§4) Human embryonic kidney HEK 293 cells (ATCC® no. CRL-1573™), colorectal carcinoma HT-29 cells (ATCC® no. HTB-38™), melanoma RPMI-7951 cells (ATCC® no. HTB-66), and breast cancer MDA-MB-231 cells (ATCC® HTB-26™) were obtained from the American Type Culture Collection (Manassas, VA, USA). […] The cell cultures were maintained at 37 °C in humidified atmosphere containing 5% CO2. […] After three passages the cells were used for the experiments. […] Then samples were vacuum evaporated and dissolved in DMSO to their stock concentrations of 20 mM. Cells (1.0 × 10^4) were seeded in 96-well plates (Jet Biofil, Guangzhou, China) and cultured in 200 µL of complete culture medium for 24 h at 37 °C in 5% CO2 incubator.

[5] = system: breast cancer MDA-MB-231 cells; test: MTS cell viability assay, MDA-MB-231 cells; format: cell-based, human
Description: as §4

[6] = system: colorectal carcinoma HT-29 cells; test: MTS cell viability assay, HT-29 cells; format: cell-based, human
Description: as §4

[7] = system: colorectal carcinoma HT-29 cells; test: Soft agar colony formation assay, HT-29 cells; format: cell-based, human; settings: for decrease of number of colonies of HT-29: 1 µM, 14 days; for decrease of number of colonies of HT-29 / colony growth of HT-29 cells (in words): soft agar; for colony growth of HT-29 cells (in words): concentrations of 0.5 µM and 1 µM; for colony formation of HT-29 cells (in words): nontoxic concentration of 0.5 µM
Description: as §1, §2, §3

melanoma RPMI-7951 cells [8] = test: Soft agar colony formation assay, RPMI-7951 cells; format: cell-based, human; settings: for decrease of number of colonies of RPMI-7951: 1 µM, 14 days; for decrease of number of colonies of RPMI-7951 / colony growth of RPMI-7951 cells (in words): soft agar; for colony growth of RPMI-7951 cells (in words): concentrations of 0.5 µM and 1 µM; for colony formation of RPMI-7951 cells (in words): nontoxic concentration of 0.5 µM
Description: as §1, §2, §3

[9] = system: human embryonic kidney HEK 293 cells; test: MTS cell viability assay, HEK 293 cells; format: cell-based
Description: as §4

[10] = Homo sapiens, RPMI-7951, 24 h, individual compounds, 24 h, MTS, read-out: Inhibiting Concentration, (IC50), RPMI-7951, a
[11] = Homo sapiens, MDA-MB-231, 24 h, individual compounds, 24 h, MTS, read-out: Inhibiting Concentration, (IC50), MDA-MB-231, a
[12] = Homo sapiens, HT-29, 24 h, individual compounds, 24 h, MTS, read-out: Inhibiting Concentration, (IC50), HT-29, a
[13] = Homo sapiens, HEK293, 24 h, individual compounds, 24 h, MTS, read-out: Inhibiting Concentration, (IC50), HEK 293, a
[14] = Homo sapiens, RPMI-7951, 24 h, read-out: Inhibiting Concentration, (IC50), RPMI-7951, a
[15] = Homo sapiens, MDA-MB-231, 24 h, read-out: Inhibiting Concentration, (IC50), MDA-MB-231, a
[16] = Homo sapiens, HT-29, 24 h, read-out: Inhibiting Concentration, (IC50), HT-29, a
[17] = Homo sapiens, HEK293, 24 h, read-out: Inhibiting Concentration, (IC50), HEK 293, a

| SMILES | decrease of number of colonies of MDA-MB-231 [1] | IC50 (melanoma RPMI-7951 cells [4]; [10]) | IC50 [5, 11] | IC50 [6, 12] | decrease of number of colonies of HT-29 [7] | decrease of number of colonies of RPMI-7951 (melanoma RPMI-7951 cells [8]) | IC50 [9, 13] | IC50 (melanoma RPMI-7951 cells [4]; [14]) | IC50 [5, 15] | IC50 [6, 16] | IC50 [9, 17] | colony growth of MDA-MB-231 cells (in words) [1] | colony formation of MDA-MB-231 cells (in words) [1] | colony growth of HT-29 cells (in words) [7] | colony formation of HT-29 cells (in words) [7] | colony growth of RPMI-7951 cells (in words) (melanoma RPMI-7951 cells [8]) | colony formation of RPMI-7951 cells (in words) (melanoma RPMI-7951 cells [8]) | also measured |
| --- | --- | --- | --- | --- | --- | --- | --- | --- | --- | --- | --- | --- | --- | --- | --- | --- | --- | --- |
| CO[C@@H]1[C@@H](O)[C@H](O[C@@H]2[C@@H](O)[C@H](O[C@H]3[C@H](O)[C@@H](O[C@@H]4OC[C@@H](O)[C@H](O)[C@H]4O)[C@H](O[C@H]4[C@H](O[C@H]5CC[C@]6(C)[C@@H]7CCC89C(=O)O[C@@](C)(/C=C/C=O)[C@H]8[C@@H](OC(C)=O)C[C@@]9(C)C7=CC[C@H]6C5(C)C)OC[C@@H](O)[C@@H]4O)O[C@@H]3C)O[C@H](CO)[C@H]2O)OC[C@H]1O (stereo partly drawn) [Compound 1, 3β-O-{3-O-methyl-β-D-xylopyranosyl-(1→3)-β-D-glucopyranosyl-(1→4)-[β-D-xylopyranosyl-(1→2)]-β-D-quinovopyranosyl-(1→2)-β-D-xylopyranosyl}-16β-acetoxy-25,26,27-trinorholosta-7,22-dien-24-al] | 28% | > 40 µM | > 40 µM | > 40 µM | 21% | 27% | > 40 µM |  |  |  |  |  |  |  |  |  |  | colony formation of all types of cancer cells (in words) [2]: slightly inhibited; cytotoxic activity against the tested cell lines (in words) [3]: nontoxic |
| C=C(C)[C@H]1[C@@H]2C[C@@]3(C)C4=CC[C@H]5C(C)(C)[C@@H](O[C@@H]6OC[C@@H](O)[C@H](O)[C@H]6O[C@@H]6O[C@H](C)[C@@H](O[C@@H]7O[C@H](CO)[C@@H](O)[C@H](O[C@@H]8OC[C@@H](O)[C@H](OC)[C@H]8O)[C@H]7O)[C@H](O)[C@H]6O)CC[C@]5(C)[C@@H]4CCC13C(=O)O2 [Compound 6, cucumarioside A10] | 40% |  |  |  | 28% | 45% |  | 5.8 ± 2.6 µM | 5.5 ± 0.1 µM | 7.8 ± 0.7 µM | 6.3 ± 0.6 µM |  |  |  |  |  |  |  |
| CO[C@@H]1[C@@H](O)[C@H](O[C@@H]2[C@@H](O)[C@H](O[C@H]3[C@H](O)[C@@H](O[C@@H]4OC[C@@H](O)[C@H](O)[C@H]4O)[C@H](O[C@H]4[C@H](O[C@H]5CC[C@]6(C)[C@@H]7CCC89C(=O)O[C@@](C)(CCC=C(C)C)[C@H]8[C@@H](OC(C)=O)C[C@@]9(C)C7=CC[C@H]6C5(C)C)OC[C@@H](O)[C@@H]4O)O[C@@H]3C)O[C@H](CO)[C@H]2O)OC[C@H]1O (stereo partly drawn) [Compound 3, 3β-O-{3-O-methyl-β-D-xylopyranosyl-(1→3)-β-D-glucopyranosyl-(1→4)-[β-D-xylopyranosyl-(1→2)]-β-D-quinovopyranosyl-(1→2)-β-D-xylopyranosyl}-16β-acetoxyholosta-7,24-diene] |  | 23.7 ± 0.4 µM | 6.4 ± 0.4 µM | 6.2 ± 0.3 µM |  |  | 6.7 ± 0.2 µM |  |  |  |  | almost completely suppressed | almost completely suppressed | almost completely suppressed | almost completely suppressed | almost completely suppressed | almost completely suppressed |  |
| CO[C@@H]1[C@@H](O)[C@H](O[C@@H]2[C@@H](O)[C@H](O[C@H]3[C@H](O)[C@@H](O[C@@H]4OC[C@@H](O)[C@H](O)[C@H]4O)[C@H](O[C@H]4[C@H](O[C@H]5CC[C@]6(C)[C@@H]7CCC89C(=O)O[C@@](C)(/C=C/C=C(C)C)[C@H]8[C@@H](OC(C)=O)C[C@@]9(C)C7=CC[C@H]6C5(C)C)OC[C@@H](O)[C@@H]4O)O[C@@H]3C)O[C@H](CO)[C@H]2O)OC[C@H]1O (stereo partly shown) [Compound 5, cucumarioside C2] |  |  |  |  |  |  |  | 5.9 ± 0.9 µM | 4.4 ± 0.09 µM | 5.5 ± 0.6 µM | 7.9 ± 0.9 µM | almost completely suppressed | almost completely suppressed | almost completely suppressed | almost completely suppressed | almost completely suppressed | almost completely suppressed |  |
| N.N.[Cl][Pt][Cl] [cisplatin, reference compound] |  |  |  |  |  |  |  |  |  |  |  |  |  |  |  |  |  | IC50 (melanoma RPMI-7951 cells [4]; after 48 h of treatment (data not shown), read-out: IC50 against RPMI-7951 cells): 48.4 µM; IC50 ([5]; after 48 h of treatment (data not shown), read-out: IC50 against MDA-MB-231 cells): 7.8 µM; IC50 ([6]; after 48 h of treatment (data not shown), read-out: IC50 against HT-29 cells): 95.4 µM; IC50 ([9]; after 48 h of treatment (data not shown), read-out: IC50 against HEK 293 cells): 64.6 µM |
| CO[C@@H]1[C@@H](O)[C@H](O[C@@H]2[C@@H](O)[C@H](O[C@H]3[C@H](O)[C@@H](O[C@@H]4OC[C@@H](O)[C@H](O)[C@H]4O)[C@H](O[C@H]4[C@H](O[C@H]5CC[C@]6(C)[C@@H]7CCC89C(=O)O[C@@](C)(/C=C\C=C(C)C)[C@H]8[C@@H](OC(C)=O)C[C@@]9(C)C7=CC[C@H]6C5(C)C)OC[C@@H](O)[C@@H]4O)O[C@@H]3C)O[C@H](CO)[C@H]2O)OC[C@H]1O (stereo partly shown) [Compound 4, cucumarioside C1] |  |  |  |  |  |  |  | 5.8 ± 1.2 µM | 3.6 ± 0.2 µM | 5.3 ± 0.2 µM | 5.5 ± 0.3 µM | almost completely suppressed | almost completely suppressed | almost completely suppressed | almost completely suppressed | almost completely suppressed | almost completely suppressed |  |
| C=C(C)[C@H]1[C@@H]2C[C@@]3(C)C4=CC[C@H]5C(C)(C)[C@@H](O[C@@H]6OC[C@@H](O)[C@H](O)[C@H]6O[C@@H]6O[C@H](C)[C@@H](O[C@@H]7O[C@H](CO)[C@@H](O)[C@H](O[C@@H]8OC[C@@H](O)[C@H](OC)[C@H]8O)[C@H]7O)[C@H](O)[C@H]6O[C@@H]6OC[C@@H](O)[C@H](O)[C@H]6O)CC[C@]5(C)[C@@H]4CCC13C(=O)O2 [Compound 2, 3β-O-{3-O-methyl-β-D-xylopyranosyl-(1→3)-β-D-glucopyranosyl-(1→4)-[β-D-xylopyranosyl-(1→2)]-β-D-quinovopyranosyl-(1→2)-β-D-xylopyranosyl}-23,24,25,26,27-pentanorlanosta-7,20(22)-diene-18(16)-lactone] | 25% | > 20 µM | > 20 µM | > 20 µM | 22% | 26% | > 20 µM |  |  |  |  |  |  |  |  |  |  | IC50 (melanoma RPMI-7951 cells [4]; individual compounds, 24 h, MTS, read-out: Inhibiting Concentration, (IC50), RPMI-7951, a): 20.4 ± 1.6 µM; IC50 ([5]; individual compounds, 24 h, MTS, read-out: Inhibiting Concentration, (IC50), MDA-MB-231, a): 21.5 ± 0.5 µM; IC50 ([6]; individual compounds, 24 h, MTS, read-out: Inhibiting Concentration, (IC50), HT-29, a): 26.2 ± 2.5 µM; IC50 ([9]; individual compounds, 24 h, MTS, read-out: Inhibiting Concentration, (IC50), HEK 293, a): 28.6 ± 2.1 µM |
